The nature of data set [1]: Assay (IV) determination of solubility. The class given is physicochemical. As for the experimental part:
Assay (IV)—Determination of Solubility
The mimylin peptide was dissolved in water at ˜500 nmol/ml and mixed 1:1 with a series of buffers (100 mM glycylglycine pH 3.0, 100 mM glycylglycine pH 4.0, 100 mM glycylglycine pH 5.0, 100 mM bistrispropane pH 6.0, 100 mM bistrispropane pH 6.5, 100 mM bistrispropane pH 7.0, 100 mM bistrispropane pH 7.5, 100 mM bistrispropane pH 8.0).

Data set [2] addresses T1, rat calcitonin receptor (Rattus norvegicus, UniProt P32214).
T1 construct: expressed in transfected cells; host or cells: BHK tk'ts 13 (transient, FuGENE 6)
T1 sequence (P32214 25-479 isoform P32214-2 limits assumed): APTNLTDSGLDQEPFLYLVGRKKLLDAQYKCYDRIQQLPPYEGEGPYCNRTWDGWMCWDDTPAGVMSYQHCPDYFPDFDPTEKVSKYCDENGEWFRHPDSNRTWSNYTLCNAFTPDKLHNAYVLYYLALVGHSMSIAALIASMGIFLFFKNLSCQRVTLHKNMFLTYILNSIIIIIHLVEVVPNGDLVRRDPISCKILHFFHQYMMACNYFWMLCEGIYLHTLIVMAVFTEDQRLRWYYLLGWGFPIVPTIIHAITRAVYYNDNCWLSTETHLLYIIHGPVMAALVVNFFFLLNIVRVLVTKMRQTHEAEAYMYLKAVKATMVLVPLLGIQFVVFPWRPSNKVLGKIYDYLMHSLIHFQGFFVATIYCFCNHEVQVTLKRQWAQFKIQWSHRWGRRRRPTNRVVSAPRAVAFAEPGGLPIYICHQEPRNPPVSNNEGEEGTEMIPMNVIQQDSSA
As to the kind of experiment: Assay (VIII) binding to the rat calcitonin receptor. The conditions noted are these: membranes; read-out: rCT-R binding IC50. As for the experimental part: The morning after, the plates were washed three times in HBSS (4° C.), and lyzed in Lysis buffer (0.1 M NaOH), 1% SDS. Scintillation cocktail (MicroScint40®) was added and the plates were shaken at 500 rpm for a short period. The plate was incubated at room temperature in the dark for 1 hour and Read on a TopCounter™ (Packard). The IC50 was calculated using (one site binding competition analysis) GraphPad Prism5 as a measure of receptor affinity. Assay (VIII)—Determination of Binding to the Rat Calcitonin Receptor
The assay was performed as described above (Assay (VII)—Determination of binding to the human calcitonin receptor) with the exception that we used membranes prepared from BHK tk'ts 13 cells that were transiently transfected with the rat calcitonin receptor. The BHK tk'ts 13 cells were transiently transfected with rat calcitonin receptor using FuGENE® 6 (Roche), according to the manufacturer's recommendations. Cells were grown in DMEM with 10% FBS and 1% Pen/Strep.

In brackets after ≈: the same amount, converted by molar mass. Numbered stars: 1 amine (or outer) side, 2 acyl side, 3 side chain; on linkers, the order of the positions; unused ones are H or OH. Square brackets hold non-standard residues; d marks the D form. Peptide text beside a SMILES is read from it. * marks the point of attachment. C20 diacid = O=C(O)CCCCCCCCCCCCCCCCCCC(=O)*; γGlu = O=C(O)[C@H](CCC(=O)[*:2])N[*:1]; C14 diacid = O=C(O)CCCCCCCCCCCCC(=O)*

This is an account of results in US9593149B2, “Amylin and calcitonin receptor agonist” (Novo Nordisk A/S, priority 2014, dated 2017).

For the molecule `CC(C)C[C@H](NC(=O)[C@H](C)NC(=O)[C@H](C)NC(=O)[C@@H](NC(=O)[C@H](CO)NC(=O)[C@H](CC(C)C)NC(=O)[C@H](CCC(=O)O)NC(=O)[C@H](CO)NC(=O)[C@H](C)NC(=O)CC[C@H](NC(=O)CCCCCCCCCCCCCCCCCCC(=O)O)C(=O)O)[C@@H](C)O)C(=O)NCC(=O)N[C@@H](CCCNC(=N)N)C(=O)N[C@@H](CC(C)C)C(=O)N[C@@H](CO)C(=O)N[C@@H](C)C(=O)N[C@@H](CCC(=O)O)C(=O)N[C@@H](CC(C)C)C(=O)N[C@@H](Cc1cnc[nH]1)C(=O)N[C@@H](CCC(=O)O)C(=O)N[C@@H](CC(C)C)C(=O)N[C@@H](C)C(=O)N[C@H](C(=O)N[C@@H](Cc1ccc(O)cc1)C(=O)N1CCC[C@H]1C(=O)N[C@@H](CCCNC(=N)N)C(=O)N[C@H](C(=O)N[C@@H](CCC(=O)O)C(=O)N[C@H](C(=O)NCC(=O)N[C@@H](CO)C(=O)NCC(=O)N[C@@H](C)C(=O)N1CCC[C@H]1C(N)=O)[C@@H](C)O)[C@@H](C)O)[C@@H](C)O` [compound 81, [N-terminal(C20 diacid-gGlu), des1, 23Y, 30S, 31G, 32A]mimylin] ({C20 diacid-γGlu}-ASELSTAALGRLSAELHELATYPRTETGSGAP-NH2), the Solubility result in data set [1] (pH 3.0), in data set [1] (pH 4.0), in data set [1] (pH 5.0), in data set [1] (pH 6.0), in data set [1] (pH 6.5) and in data set [1] (pH 7.0) was “≧200 μM” throughout. For the same molecule, the Solubility entry in data set [1] (pH 7.5) and in data set [1] (pH 8.0) was “≧200 μM” in each case. Moreover, the IC50 in data set [2] stood at 0.039 nM.

Take `CC(C)C[C@H](NC(=O)[C@H](C)NC(=O)[C@H](C)NC(=O)[C@@H](NC(=O)[C@H](CO)NC(=O)[C@H](CC(C)C)NC(=O)[C@H](CCC(=O)O)NC(=O)[C@H](CO)NC(=O)[C@H](C)NC(=O)CC[C@H](NC(=O)CCCCCCCCCCCCC(=O)O)C(=O)O)[C@@H](C)O)C(=O)NCC(=O)N[C@@H](CCCNC(=N)N)C(=O)N[C@@H](CC(C)C)C(=O)N[C@@H](CO)C(=O)N[C@@H](C)C(=O)N[C@@H](CCC(=O)O)C(=O)N[C@@H](CC(C)C)C(=O)N[C@@H](Cc1cnc[nH]1)C(=O)N[C@@H](CCC(=O)O)C(=O)N[C@@H](CC(C)C)C(=O)N[C@@H](C)C(=O)N[C@H](C(=O)N[C@@H](CC(C)C)C(=O)N1CCC[C@H]1C(=O)N[C@@H](CCCNC(=N)N)C(=O)N[C@H](C(=O)N[C@@H](CCC(=O)O)C(=O)N[C@H](C(=O)NCC(=O)N[C@@H](CO)C(=O)NCC(=O)N[C@@H](CO)C(=O)N1CCC[C@H]1C(N)=O)[C@@H](C)O)[C@@H](C)O)[C@@H](C)O` [compound 50, [N-terminal(C14 diacid-gGlu), des1, 30S, 31G]mimylin] ({C14 diacid-γGlu}-ASELSTAALGRLSAELHELATLPRTETGSGSP-NH2): the Solubility entry in data set [1] (pH 3.0), in data set [1] (pH 4.0), in data set [1] (pH 5.0), in data set [1] (pH 6.0), in data set [1] (pH 6.5) and in data set [1] (pH 7.0) was “≧200 μM” each time. For the same molecule, the Solubility entry in data set [1] (pH 7.5) and in data set [1] (pH 8.0) was “≧200 μM” throughout. The concentration for half-maximal inhibition (IC50) in data set [2] came out at 0.017 nM.

`CC(C)C[C@H](NC(=O)[C@H](C)NC(=O)[C@H](C)NC(=O)[C@@H](NC(=O)[C@H](CO)NC(=O)[C@H](CC(C)C)NC(=O)[C@H](CCC(=O)O)NC(=O)[C@H](CO)NC(=O)[C@H](C)NC(=O)CC[C@H](NC(=O)CCCCCCCCCCCCCCCCCCC(=O)O)C(=O)O)[C@@H](C)O)C(=O)NCC(=O)N[C@@H](CCCNC(=N)N)C(=O)N[C@@H](CC(C)C)C(=O)N[C@@H](CO)C(=O)N[C@H](CCC(=O)O)C(=O)N[C@@H](CCC(=O)O)C(=O)N[C@@H](CC(C)C)C(=O)N[C@@H](Cc1cnc[nH]1)C(=O)N[C@@H](CCC(=O)O)C(=O)N[C@@H](CC(C)C)C(=O)N[C@@H](C)C(=O)N[C@H](C(=O)N[C@@H](CC(C)C)C(=O)N1CCC[C@H]1C(=O)N[C@@H](CCCNC(=N)N)C(=O)N[C@H](C(=O)N[C@@H](CCC(=O)O)C(=O)N[C@H](C(=O)NCC(=O)N[C@@H](CO)C(=O)NCC(=O)N[C@@H](CO)C(=O)N1CCC[C@H]1C(N)=O)[C@@H](C)O)[C@@H](C)O)[C@@H](C)O` [compound 67, [N-terminal(C20 diacid-gGlu), des1, 15e, 30S, 31G]mimylin] ({C20 diacid-γGlu}-ASELSTAALGRLS[dE]ELHELATLPRTETGSGSP-NH2): the Solubility entry in data set [1] (pH 3.0), in data set [1] (pH 4.0), in data set [1] (pH 5.0), in data set [1] (pH 6.0), in data set [1] (pH 6.5) and in data set [1] (pH 7.0) was “≧200 μM” each time. Moreover, the Solubility entry in data set [1] (pH 7.5) and in data set [1] (pH 8.0) was “≧200 μM” in each case. For the same molecule, the IC50 in data set [2] was found to be 0.017 nM.

Consider `CC(C)C[C@H](NC(=O)[C@H](C)NC(=O)[C@H](C)NC(=O)[C@@H](NC(=O)[C@H](CO)NC(=O)[C@H](CC(C)C)NC(=O)[C@H](CCC(=O)O)NC(=O)[C@H](CO)NC(=O)[C@H](C)NC(=O)CC[C@H](NC(=O)CCCCCCCCCCCCCCCCCCC(=O)O)C(=O)O)[C@@H](C)O)C(=O)NCC(=O)N[C@@H](CCCNC(=N)N)C(=O)N[C@@H](CC(C)C)C(=O)N[C@@H](CO)C(=O)N[C@@H](C)C(=O)N[C@@H](CCC(=O)O)C(=O)N[C@@H](CC(C)C)C(=O)N[C@@H](Cc1cnc[nH]1)C(=O)N[C@@H](CCC(=O)O)C(=O)N[C@@H](CC(C)C)C(=O)N[C@@H](C)C(=O)N[C@H](C(=O)N[C@@H](CC(C)C)C(=O)N1CCC[C@H]1C(=O)N[C@@H](CCCNC(=N)N)C(=O)N[C@H](C(=O)N[C@@H](CCC(=O)O)C(=O)N[C@H](C(=O)NCC(=O)N[C@@H](CO)C(=O)NCC(=O)N[C@@H](CO)C(=O)N[C@@H](Cc1ccc(O)cc1)C(N)=O)[C@@H](C)O)[C@@H](C)O)[C@@H](C)O` [compound 59, [N-terminal(C20 diacid-gGlu), des1, 30S, 31G, 33Y]mimylin] ({C20 diacid-γGlu}-ASELSTAALGRLSAELHELATLPRTETGSGSY-NH2), for which the Solubility entry in data set [1] (pH 3.0), in data set [1] (pH 4.0), in data set [1] (pH 6.0), in data set [1] (pH 6.5), in data set [1] (pH 7.0) and in data set [1] (pH 7.5) was “≧200 μM” throughout. Besides, the Solubility result in data set [1] (pH 8.0) is “≧200 μM”. The solubility at 18 h in data set [1] (pH 5.0) came to 73 µM (≈ 273 µg/mL). For the same molecule, in data set [2], the 50% inhibitory concentration (IC50) worked out at 0.023 nM.

Turning to `CC(C)C[C@H](NC(=O)CNC(=O)[C@H](CO)NC(=O)[C@H](C)NC(=O)COCCOCCNC(=O)COCCOCCNC(=O)CC[C@H](NC(=O)CCCCCCCCCCCCCCCCC(=O)O)C(=O)O)C(=O)N[C@@H](CO)C(=O)N[C@H](C(=O)N[C@@H](C)C(=O)N[C@H](C(=O)N[C@@H](CC(C)C)C(=O)NCC(=O)N[C@@H](CCCNC(=N)N)C(=O)N[C@@H](CC(C)C)C(=O)N[C@@H](CO)C(=O)N[C@@H](CCC(N)=O)C(=O)N[C@@H](CCC(=O)O)C(=O)N[C@@H](CC(C)C)C(=O)N[C@@H](Cc1cnc[nH]1)C(=O)N[C@@H](CCC(=O)O)C(=O)N[C@@H](CC(C)C)C(=O)N[C@@H](CCC(N)=O)C(=O)N[C@H](C(=O)N[C@@H](Cc1ccc(O)cc1)C(=O)N1CCC[C@H]1C(=O)N[C@@H](CCCNC(=N)N)C(=O)N[C@H](C(=O)N[C@@H](CCC(=O)O)C(=O)N[C@H](C(=O)NCC(=O)N[C@@H](CO)C(=O)NCC(=O)N[C@H](C(=O)N[C@@H](Cc1ccc(O)cc1)C(N)=O)[C@@H](C)O)[C@@H](C)O)[C@@H](C)O)[C@@H](C)O)C(C)C)[C@@H](C)O` [compound 121, [N-terminal(C18 diacid-gGlu-2xOEG), des1, 4G, 9V, 15Q, 21Q, 23Y, 30S, 31G, 32T, 33Y]mimylin], the Solubility result in data set [1] (pH 3.0), in data set [1] (pH 4.0), in data set [1] (pH 6.0), in data set [1] (pH 6.5), in data set [1] (pH 7.0) and in data set [1] (pH 7.5) was “≧200 μM” throughout. Further, the Solubility entry in data set [1] (pH 8.0) is recorded as “≧200 μM”. This molecule also gave a solubility at 18 h in data set [1] (pH 5.0) of 110 µM (≈ 455 µg/mL). Also, in data set [2], the IC50 turned out to be 0.032 nM.

For orientation: IC50 means the concentration at which inhibition is half-maximal. A word on the solubility: it is the dissolved amount per volume that the medium holds.
